Nine compounds from publication PMC7006651, “Effect of 6-Benzoyl-benzothiazol-2-one scaffold on the pharmacological profile of α-alkoxyphenylpropionic acid derived PPAR agonists” (Journal of Enzyme Inhibition and Medicinal Chemistry, 2020) can be followed below.

As usually defined, the melting point is the temperature of the solid-liquid transition. The term Ki denotes the equilibrium dissociation constant of an inhibitor or competing ligand from its target.

Where only a bound is given, the exact number is not on record here.

The target of series [1] is T1, human PPARγ (Homo sapiens, UniProt P37231).
T1 construct: expressed in transfected cells; host or cells: Cos-7
T1 sequence (P37231 238-503 limits assumed): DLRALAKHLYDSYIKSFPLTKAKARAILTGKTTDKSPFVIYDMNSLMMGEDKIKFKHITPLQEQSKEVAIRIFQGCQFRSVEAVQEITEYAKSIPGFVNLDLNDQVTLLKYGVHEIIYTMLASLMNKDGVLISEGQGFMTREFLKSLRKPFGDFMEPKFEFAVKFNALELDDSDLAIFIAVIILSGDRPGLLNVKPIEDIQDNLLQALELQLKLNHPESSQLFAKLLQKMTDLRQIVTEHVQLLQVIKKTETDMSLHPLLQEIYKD
Briefly: Gene reporter (transactivation) assay, Cos-7 cells transfected with pGal4-hPPARγ.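 For all read-outs here: luciferase reporter (pG5-TK) activity normalised to cotransfected β-galactosidase, cells exposed to increasing compound concentrations in DMEM with 0.2% FCS, DMSO vehicle as control.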 The format is cell-based. To be noted: Cos-7 cells, 24 h; for Emax: COS-7, 24 h, Emax relative to maximum activation with rosiglitazone (1 μM) = 100%, read-out: hPPAR gene reporter γGal4 (%); for EC50: GAL4 chimeric hPPARγ, read-out: hPPAR gene reporter γEC50.
Description: (§1) Cos-7 cells were transiently transfected with luciferase reporter plasmid (pG5-TK-pGL3) in the presence of pGal4-hPPARα or pGal4-hPPARγ (these vectors express chimeric proteins containing the Gal4 DNA-binding domain fused to the human PPARα or PPARγ ligand binding domain coding sequence) expression vector. […] Cells were transfected in OptiMEM without FCS for 3 h at 37°, using polyethylenimine (PEI), with reporter and expression plasmids, as stated in figure’s legend. The plasmid pBluescript (Stratagene, La Jolla, CA) was used as carrier DNA to set the final amount of DNA to 5.5 µg/dish. The pCMV- ß-galactosidase expression plasmid was cotransfected as a control for transfection efficiency. […] After 16 h, cells were trypsinised and seeded in 96-well plates at the density of 2 × 10^4 cells/well and incubated for 6 h in 10% FCS containing DMEM. Cells were then incubated for 24 h in DMEM containing 0.2% FCS and increasing concentrations of the compound tested or vehicle (DMSO). At the end of the experiment, cells were washed once with ice-cold PBS and the luciferase and the β–galactosidase assays were performed as described previously[20]. Cells were incubated 24 h in the presence of indicated concentrations of compound. Luciferase activity was measured and normalised to internal control β-galactosidase activity. […] EC50 were estimated using Prism software (GraphPad). All transfection experiments were performed at least three times.

The target in a further series is T2, human PPARα (Homo sapiens, UniProt Q07869).
T2 construct: expressed in transfected cells; host or cells: Cos-7
T2 sequence (Q07869 239-466 limits assumed): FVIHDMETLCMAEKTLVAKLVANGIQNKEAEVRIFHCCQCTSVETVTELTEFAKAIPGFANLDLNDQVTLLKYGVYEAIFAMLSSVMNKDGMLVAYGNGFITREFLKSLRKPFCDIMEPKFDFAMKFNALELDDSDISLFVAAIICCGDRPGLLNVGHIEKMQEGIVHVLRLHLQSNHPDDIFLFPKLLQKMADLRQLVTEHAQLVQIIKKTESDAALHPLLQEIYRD
As to the kind of experiment: Gene reporter (transactivation) assay, Cos-7 cells transfected with pGal4-hPPARα.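 For all read-outs here: luciferase signal from a Gal4-driven reporter normalised to cotransfected β-galactosidase activity, cells exposed to rising compound concentrations with DMSO vehicle as control.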 The format is cell-based. To be noted: for Emax: COS-7, 24 h, Emax relative to maximum activation with WY14643 (10 µM) = 100%, read-out: hPPAR gene reporter αGal4 (%); for EC50: GAL4 chimeric hPPARα, 24 h, read-out: hPPAR gene reporter αEC50.

Series [2] deals with T3, human PPARγ (Homo sapiens, UniProt P37231).
T3 sequence (P37231 235-505 limits assumed): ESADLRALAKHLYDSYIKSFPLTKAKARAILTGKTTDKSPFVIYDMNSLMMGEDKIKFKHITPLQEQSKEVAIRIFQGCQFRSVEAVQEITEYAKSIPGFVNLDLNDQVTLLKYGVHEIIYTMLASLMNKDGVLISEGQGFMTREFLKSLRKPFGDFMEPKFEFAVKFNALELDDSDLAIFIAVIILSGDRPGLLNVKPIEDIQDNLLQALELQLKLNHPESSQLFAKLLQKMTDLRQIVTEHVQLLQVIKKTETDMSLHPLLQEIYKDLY
As to the kind of experiment: Membrane-bound PPARγ binding assay ([3H]rosiglitazone competition, filtration). Particulars: competition with [3H]rosiglitazone (4 nM), 180 min at 4 °C; read-out: Ki (nM), hPPARγ binding affinity. As to the method:
The membrane-associated PPARγ was used as the biological source as previously described. Binding buffer consisted of 10 mM Tris/HCl, pH 8.2, containing 50 mM KCl and 1 mM dithiothreitol. […] Radioactivity was measured in a TopCount apparatus (Packard).

Another series concerns CaCO2 cells. As to the kind of experiment: CaCo2 cell absorption (membrane permeability model). Type of series: in vitro ADME. Particulars: percentage of absorption. As to the method: The in vivo effect of test compounds was determined by measuring glycaemia, triglyceridemia, insulinemia, and body weight using ob/ob mice (Table 3). The ob/ob mice were obese, insulin resistant with hypertriglyceridaemia and hyperglycaemia, and have been used as a rodent model of obesity-induced insulin resistance. […] As a side effect index, body weight was also measured daily, and body weight variation was calculated as a percentage of the difference in body weight between days 4 and 0. […] Benzoyl derivatives 32a, 41a and 42a were not evaluated in vivo with regard to their low absorption values with CaCO2 cells (< 25%), an in vitro model predicting membrane permeability. […] Indeed, incorporation of substituents such as methyl oxime ether and trifluoroethoxy group are benefiting for PPAR activity regulation and so for effective management of dyslipidemia without inducing body weight gain. […] The CF3 group incorporation, beyond keeping a good in vivo efficacy, provided a robust reduction of body weight induced with compound 44a, strengthening the beneficial pharmacological effect of C-H bond replacement with fluorine. Compound 44 b may be considered as a SPPARγM since this full PPARγ agonist retains the insulin-sensitizing and glucose-lowering actions while mitigating or eliminating the undesirable side effects.
(In general: Caco-2 monolayers are a common model of the intestinal barrier.)

The test system of another series is ob/ob mice. As to the kind of experiment: In vivo ob/ob mice: glycaemia, triglyceridemia, insulinemia, body weight.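 For all read-outs here: male ob/ob mice aged 10–12 weeks, given the compound once daily by oral gavage as a 1% hydroxyethylcellulose suspension, 8–12 animals per group.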 To be noted: oral, 4 days; for ΔBW (body weight variation between day 0 and day 4): expressed in % of rosiglitazone in the same study (= 100%), ob/ob mice; for ΔBW (body weight variation between day 0 and day 4) / Change (%) Gly (glycemia) / Change (%) Ins (insulin) / Change (%) TG (triglycerides): synthesised compounds 8.4 µMkg^−1, references 3 mgkg^−1; for Change (%) Gly (glycemia) / Change (%) Ins (insulin) / Change (%) TG (triglycerides): percent change versus control, ob/ob mice at day 4.

Description for human PPARα: as §1
Description for ob/ob mice: The glucose- and triglyceride-lowering activities of the compounds prepared were then tested using 10–12-week-old male ob/ob mice. […] Mice had access to filtered (0.22 mm) tap water ad libitum and irradiated pelleted laboratory chow (transbreed, Special Diet Services, England) throughout the study. Compounds were prepared as a suspension in 1% hydroxyethylcellulose (HEC) for oral administration (10 mLkg^−1). The mice (n = 8–12 per group) were dosed by gavage daily between 15:00 and 17:00 for 4 days. Randomisation was performed based on glycaemia values. The body weight gain (DBW in grams) of the animals was determined by measuring the difference between body weight at the beginning and end of the study for each mouse. At day 5 between 9:00 and 11:00 the mice were weighed, and blood samples were collected into heparin-containing tubes by retro-orbital puncture (500 mL per mouse). […] Plasma samples were prepared by centrifugation (2000 g for 10 min), and stored at −20 °C. For triglycerides and insulin determination, the percent change in plasma level in the treated group was calculated relative to the mean plasma level in the vehicle-treated group. ANOVA, followed by Dunnett’s comparison test (one-tailed) was used to estimate significant differences between the plasma glycaemia, triglycerides, insulin, and DBW values between the control group and the individual compound-treated groups.

With `CCO[C@H](Cc1ccc(OCCn2c(=O)sc3cc(C(=O)c4ccccc4)ccc32)cc1)C(=O)O` [Compound 42a, (R)-3-{4-[2–(6-benzoyl-2-oxo-benzothiazol-3-yl)-ethoxy]-phenyl}-2-ethoxypropionic acid], the melting point fell in the range of 57 to 59 °C. Also, at human PPARγ [1], the Emax was 39% and the EC50 was 300 nM. Also, the Emax at human PPARα is 0%. The Ki on human PPARγ [2] is 70 nM. The “absorption with CaCO2 cells (CaCo2 permeability)” value (shortened to “absorption with CaCO2 cells”) in the series on CaCO2 cells was less than 25%.

Take `CON=C(c1ccccc1)c1ccc2c(c1)sc(=O)n2CCOc1ccc(CC(OCC(F)(F)F)C(=O)O)cc1` (racemic) [Compound 40b, 3-{4-[2–(6-[(E)-methoxyimino-phenyl-methyl]-2-oxo-benzothiazol-3-yl)-ethoxy]-phenyl}-2–(2,2,2-trifluoro)ethoxypropionic acid]: the melting point lay within 56 to 57 °C. On human PPARγ [1], the Emax worked out at 95% and the EC50 worked out at 7 nM. Besides, at human PPARα, the Emax stood at 56% and the EC50 was found to be 180 nM. Besides, in the series on ob/ob mice, the “ΔBW (body weight variation between day 0 and day 4)” value (“ΔBW” for short) is on record as −70%; the “Change (%) Gly (glycemia)” value was −37%; the “Change (%) Ins (insulin)” value was −55%; the “Change (%) TG (triglycerides)” value is on record as −54%. For the same compound, at human PPARγ [2], the Ki amounted to 1.3 nM.

As to `CCO[C@@H](Cc1ccc(OCCn2c(=O)sc3cc(C(=O)c4ccccc4)ccc32)cc1)C(=O)O` [Compound 41a, (S)-3-{4-[2–(6-benzoyl-2-oxo-benzothiazol-3-yl)-ethoxy]-phenyl}-2-ethoxypropionic acid], the melting point fell in the range of 57 to 59 °C. Also, on human PPARγ [1], the Emax is 142% and the EC50 turned out to be 8 nM. In addition, on human PPARα, the Emax came to 166% and the EC50 is 522 nM. The Ki at human PPARγ [2] came to 0.5 nM. Further, in the series on CaCO2 cells, the “absorption with CaCO2 cells” value is reported as less than 25%.

`CCO[C@H](Cc1ccc(OCCn2c(=O)sc3cc(/C(=N/O)c4ccccc4)ccc32)cc1)C(=O)O` [Compound 45a, (R)-3-{4-[2–(6-[(E)-hydroxyimino-phenyl-methyl]-2-oxo-benzothiazol-3-yl)-ethoxy]-phenyl}-2-ethoxypropionic acid] came in with a melting point of 84 to 85 °C. Also, at human PPARγ [1], the Emax was 66% and the EC50 is 799 nM. In addition, the Emax on human PPARα was 30%. In the series with ob/ob mice, the “ΔBW” value amounted to 328%; the “in vivo activity in ob/ob mice” value is “inactive”; the “Change (%) Gly (glycemia)” value is listed as −7%; the “Change (%) Ins (insulin)” value is 51%. In addition, in the series on ob/ob mice, the “Change (%) TG (triglycerides)” value came out at 21%. In addition, at human PPARγ [2], the Ki was 210 nM. Also, in the series with CaCO2 cells, the “absorption with CaCO2 cells” value is 31%.

For the compound `CCOC(Cc1ccc(OCCn2c(=O)sc3cc(/C(=N/O)c4ccccc4)ccc32)cc1)C(=O)O` (stereo not drawn) [Compound 39a, 3-{4-[2–(6-[(E)-hydroxyimino-phenyl-methyl]-2-oxo-benzothiazol-3-yl)-ethoxy]-phenyl}-2-ethoxypropionic acid], the melting point lay in the range of 84 to 85 °C. Further, on human PPARγ [1], the Emax came to 91% and the EC50 is 24 nM. Moreover, the Emax at human PPARα was 129%. Moreover, in the series with ob/ob mice, the “ΔBW” value was −10%; the “Change (%) Gly (glycemia)” value is recorded as −49%; the “Change (%) Ins (insulin)” value is recorded as −34%; the “Change (%) TG (triglycerides)” value is −69%. The Ki on human PPARγ [2] worked out at 2 nM.

Consider `O=C(O)C(Cc1ccc(OCCn2c(=O)sc3cc(C(=NO)c4ccccc4)ccc32)cc1)OCC(F)(F)F` (mixture of isomers) [Compound 39b, 3-{4-[2–(6-[(Z/E)-hydroxyimino-phenyl-methyl]-2-oxo-benzothiazol-3-yl)-ethoxy]-phenyl}-2–(2,2,2-trifluoro)ethoxypropionic acid], for which the melting point is 55 to 56 °C. For the same compound, at human PPARγ [1], the Emax was 44% and the EC50 was 10 nM. Further, on human PPARα, the Emax came to 29%. For the same compound, in the series on ob/ob mice, the “ΔBW” value turned out to be 75%; the “Change (%) Gly (glycemia)” value is recorded as −18%; the “Change (%) Ins (insulin)” value came to 10%; the “Change (%) TG (triglycerides)” value is −30%. The Ki on human PPARγ [2] came out at 165 nM.

`CCO[C@@H](Cc1ccc(OCCn2c(=O)sc3cc(/C(=N/O)c4ccccc4)ccc32)cc1)C(=O)O` [Compound 43a, (S)-3-{4-[2–(6-[(E)-hydroxyimino-phenyl-methyl]-2-oxo-benzothiazol-3-yl)-ethoxy]-phenyl}-2-ethoxypropionic acid]: the melting point was 84 to 85 °C. Besides, on human PPARγ [1], the Emax stood at 123% and the EC50 was 16 nM. The Emax on human PPARα worked out at 153%. In addition, in the series on ob/ob mice, the “ΔBW” value is reported as 113%; the “Change (%) Gly (glycemia)” value is on record as −55%; the “Change (%) Ins (insulin)” value was −29%; the “Change (%) TG (triglycerides)” value is given as −33%. Besides, on human PPARγ [2], the Ki is 0.5 nM.

Consider `CCOC(Cc1ccc(OCCn2c(=O)sc3cc(C(=O)c4ccccc4)ccc32)cc1)C(=O)O` (stereo not drawn) [Compound 32a, 3-{4-[2–(6-benzoyl-2-oxo-benzothiazol-3-yl)-ethoxy]-phenyl}-2-ethoxypropionic acid], for which the melting point was 57 to 59 °C. Also, at human PPARγ [1], the Emax was no less than 80% and the EC50 turned out to be 15 nM. Further, on human PPARα, the Emax was no less than 80% and the EC50 is 2400 nM. Further, at human PPARγ [2], the inhibitory constant (Ki) turned out to be 4 nM. Moreover, the “absorption with CaCO2 cells” value with CaCO2 cells is less than 25%.

Compound `CCOC(Cc1ccc(OCCn2c(=O)sc3cc(/C(=N/OC)c4ccccc4)ccc32)cc1)C(=O)O` (stereo not drawn) [Compound 40a, 3-{4-[2–(6-[(E)-methoxyimino-phenyl-methyl]-2-oxo-benzothiazol-3-yl)-ethoxy]-phenyl}-2-ethoxypropionic acid] had a melting point of 151 to 152 °C. Moreover, at human PPARγ [1], the Emax came to 87% and the EC50 amounted to 2 nM. For the same compound, on human PPARα, the Emax was 159% and the EC50 was 129 nM. In the series on ob/ob mice, the “ΔBW” value worked out at 188%; the “Change (%) Gly (glycemia)” value is given as −58%; the “Change (%) Ins (insulin)” value is reported as −76%; the “Change (%) TG (triglycerides)” value was −83%. For the same compound, on human PPARγ [2], the Ki is 4 nM.
